Measured values reported in patent US20110177541A1, “METHOD FOR ADJUSTING THE COAGULATION TIME IN CALIBRATOR OR CONTROL PLASMAS” (DIAGNOSTICA STAGO, priority 2010, published 2011).

Test system: plasma coagulation time (PT)
Test: Prothrombin time (PT) in STA NeoCl+ on treated (defrosted, pooled, excipient-supplemented, filtered) plasma
Format: biochemical
Protocol: The plasma bags were defrosted at 37° C.±2° C. in a defroster; once defrosted, the plasma was stabilized at 37° C.±2° C. for 30 minutes.
The bags were then pooled in a stainless steel container and the plasma was then homogenized using a magnetic stirrer.
The lyophilization excipients (lactose, saccharose, HEPES buffer) were added, stirring until dissolution was complete.
A sample was taken to measure the pH, the conductivity and to determine the PT on a STA Neo Cl+ apparatus using STA-R (Diagnostica STAGO).
The plasma was filtered on a CRK1 cartridge (Millipore) and a sample was taken to determine the PT in the NeoCl+ after filtration. […]
A sample of each point was tested in the STA NeoCl+; a range resulting from the addition of different concentrations of F VIIa was produced for each level as a function of the coagulation times obtained.
For each point, the concentration of added factor VIIa was determined as a function of the times on a reference graph obtained for fresh plasmas.
The F VIIa was then added, and homogenized and a sample of each point was taken in order to measure the pH, the conductivity and to determine the PT in the STA NeoCl+ using STA-R to verify that the desired times were indeed obtained, then each product was distributed and lyophilized.
In the table below, a range for procoagulant factor F VIIa has been produced for a range of concentrations of rivaroxaban.

O=C(NC[C@H]1CN(c2ccc(N3CCOCC3=O)cc2)C(=O)O1)c1ccc(Cl)s1 [rivaroxaban]
PT divergence of treated plasma with respect to fresh plasma (500 ng/mL of rivaroxaban, FIG. 1): 13 s
Time in NeoCl+ (rivaroxaban 25 ng/mL, FVIIa 0 IU/mL): 14.4 s
Time in NeoCl+ (rivaroxaban 25 ng/mL, FVIIa 0.1 IU/mL): 13.7 s
Time in NeoCl+ (rivaroxaban 50 ng/mL, FVIIa 0 IU/mL): 15.3 s
Time in NeoCl+ (rivaroxaban 50 ng/mL, FVIIa 0.2 IU/mL): 14.3 s
Time in NeoCl+ (rivaroxaban 50 ng/mL, FVIIa 0.3 IU/mL): 14.6 s
Time in NeoCl+ (rivaroxaban 50 ng/mL, FVIIa 0.4 IU/mL): 14.6 s
Time in NeoCl+ (rivaroxaban 200 ng/mL, FVIIa 0 IU/mL): 21.2 s
Time in NeoCl+ (rivaroxaban 200 ng/mL, FVIIa 0.1 IU/mL): 19.8 s
Time in NeoCl+ (rivaroxaban 200 ng/mL, FVIIa 0.2 IU/mL): 19 s
Time in NeoCl+ (rivaroxaban 250 ng/mL, FVIIa 0 IU/mL): 23.5 s
Time in NeoCl+ (rivaroxaban 250 ng/mL, FVIIa 0.2 IU/mL): 21 s
Time in NeoCl+ (rivaroxaban 250 ng/mL, FVIIa 0.3 IU/mL): 20.3 s
Time in NeoCl+ (rivaroxaban 250 ng/mL, FVIIa 0.4 IU/mL): 19.9 s
Time in NeoCl+ (rivaroxaban 500 ng/mL, FVIIa 0 IU/mL): 32 s
Time in NeoCl+ (rivaroxaban 500 ng/mL, FVIIa 0.1 IU/mL): 29.9 s
Time in NeoCl+ (rivaroxaban 500 ng/mL, FVIIa 0.2 IU/mL): 28.4 s
Time in NeoCl+ (rivaroxaban 500 ng/mL, FVIIa 0.3 IU/mL): 27.5 s
Time in NeoCl+ (rivaroxaban 500 ng/mL, FVIIa 0.4 IU/mL): 26.8 s
Time in NeoCl+ (rivaroxaban 800 ng/mL, FVIIa 0 IU/mL): 43.5 s
Time in NeoCl+ (rivaroxaban 800 ng/mL, FVIIa 0.2 IU/mL): 38.3 s
Time in NeoCl+ (rivaroxaban 800 ng/mL, FVIIa 0.3 IU/mL): 36.6 s
